“And” between values parts separate entries of the source, which are not always exact repeats. Equal values may be shown once. Read-outs that look alike come from different tables or passages of the source.
Tests used:
[1] = test system: influenza B polymerase; assay: Fluorescence anisotropy/polarization protein-RNA binding; set-up: species or system influenza B/Memphis/13/03; conditions: for dissociation constant, polymerase + RNA (in words): each RNA separately
Procedure: Fluorescence spectroscopy was used to quantify protein–RNA interactions, employing either a plate reader or cuvette format. Using the cuvette, protein was successively added to FAM-Ex-5-labelled RNA (if not indicated otherwise) in binding buffer (50 mM HEPES/NaOH, 0.15 M NaCl, 10% (v/v) glycerol, 2 mM Tris(2-carboxyethyl)phosphine (TCEP), pH 7.4) at the concentrations indicated. After attaining equilibrium, total fluorescence intensity and fluorescence anisotropy were measured at T = 24°C with a fluorescence spectrometer (Photon Technology International) equipped with polarizers with excitation and emission wavelengths set to 495 and 515 nm, respectively. Total fluorescence intensity was corrected for the volume change due to addition of protein and the observed fluorescence anisotropy corrected for the change in fluorescence intensity according to Equation (1) ([17]): (1) where fb represents the fractional concentration of bound RNA, r the observed anisotropy, rf and rb the anisotropy of free and bound RNA, and If and Ib the fluorescence intensity of free and bound RNA, respectively. Using KaleidaGraph (Synergy Software), dissociation constants were derived by fitting the binding isotherms to a 1:1 binding model of RNA and protein according to Equation (2) (2) where fb represents the fractional concentration of bound RNA, L the total concentration of labelled RNA, P the concentration of protein and KD the dissociation constant.

[2] = target: influenza B polymerase initiating RNA synthesis at the cRNA promoter (cPol) (Influenza B virus, UniProt Q5V8Y6); assay: biochemical; format: biochemical, influenza B/Memphis/13/03
[3] = target: T1, influenza B polymerase initiating RNA synthesis at the vRNA promoter (vPol) (Influenza B virus, UniProt Q5V8X3+Q5V8Y6); conditions: read-out: KM of primer, vPol, 0.5 mM NTPs, 0.15 μM template v3΄ 1–18, 0.25 μM polymerase, T = 24°C
[4] = target: Cy3-labelled v3΄ nt 1–18; assay: FRET assay of RNA-RNA interaction with v3΄ nt 1–18; format: binding; conditions: FAM-labelled 5΄ RNA, T = 25°C
Procedure: (§1) RNA–RNA interactions were quantified by a simple FRET-assay. Briefly, ∼0.01 μM short 5΄ RNAs labelled at their 3΄ ends by FAM-Ex-5 were incubated at T = 25°C in 384 well plates (FIA plate black, 128.0/85 mm, medium binding; Greiner Bio-One GmbH, Austria) in binding buffer (50 mM HEPES/NaOH, 0.15 M NaCl, 10% (v/v) glycerol, 2 mM Tris(2-carboxyethyl)phosphine (TCEP), pH 7.4) with 3΄ RNAs labelled at their 5΄ end by Cy3 at the concentrations indicated. After attaining equilibrium (∼0.5 h), the FAM's fluorescence intensity was recorded as averaged technical triplicates (excitation / emission = 485/520 nm; 10 nm band width; CLARIOstar, BMG Labtech, Germany). The decreasing fluorescence intensity with increasing Cy3-labelled 3΄ RNA is plotted relative to its initial value as mean values of at least duplicate experiments with the standard deviation indicated. Mean values were then analysed according to Equation (2) (with P equaling the concentration of Cy3-labelled 3΄ RNA; curve fitting yielded L = 0.007 μM and 0.004 μM for FAM-Ex-5-labelled c5΄ and v5΄ nts 1–18, respectively), yielding the corresponding dissociation constants and error of the fitting routine stated. 0.2 μM FAM-Ex-5-labelled v5΄ nt 1–10 were used to study its weak interaction with either Cy3-labelled v3΄ nt 1–9 or v3΄ nt 1–18.

[5] = target: Cy3-labelled c3΄ RNA (18-mer); assay: FRET assay of RNA-RNA interaction with c3΄ RNA; format: binding; conditions: FAM-labelled 5΄ RNA, T = 25°C
Procedure: as §1

[6] = target: influenza B polymerase, vPol (c5' hook) (Influenza B virus, UniProt Q5V8Y6); assay: biochemical; set-up: species or system influenza B/Memphis/13/03
[7] = target: T1, influenza B polymerase initiating RNA synthesis at the vRNA promoter (vPol); assay: biochemical; conditions: IC50 (mM)
[8] = test system: influenza polymerase; set-up: method as in PMID 8585725; conditions: in vitro and cell culture experiments; cited from earlier work
[9] = 0.025 mM NTPs, capped RNA primed, T ∼ 21°C, t = 176 or 100 min, read-out: IC50 (mM), cPol
[10] = 0.25 mM NTPs, capped RNA primed, T ∼ 21°C, t = 15 or 10 min, read-out: IC50 (mM), cPol
[11] = 0.025 mM NTPs, capped RNA primed, T ∼ 21°C, t = 5 min, not duplicate, read-out: IC50 (mM), vPol (c5' hook)
[12] = 0.025 mM NTPs, capped RNA primed, T ∼ 21°C, t = 5 min
[13] = 0.25 mM NTPs, capped RNA primed, T ∼ 21°C, t = 5 min

## 5΄-UAUACCUCUGCUUCUGCU-3΄ (chemistry not given here) [v3', genomic vRNA 3΄ end, 18 nucleotides]
[1]
  dissociation constant, polymerase + RNA (in words): low nanomolar range

## 5΄-m^7GpppAAUCUAUAAUAG-3΄ [capped RNA]
[2]; 0.5 mM NTPs, 0.15 μM template c3΄ 1–18, 0.25 μM polymerase, T = 24°C, read-out: KM (capped RNA), cPol
  Km: 0.12 ± 0.03 µM
[3]
  Km: 0.027 ± 0.01 µM

## 5΄-pAGUAGUAACAAGAG-3΄ [non-capped RNA]
[3]
  Km: 1.1 ± 0.2 µM
[3]; listed as v5′ 1-14
  Km: ~1 µM

## 5′-UACCCUCUUGUUACUACU-3′ (chemistry not given here) [c3', anti-genomic cRNA 3΄ end, 18 nucleotides]
[1]
  dissociation constant, polymerase + RNA (in words): low nanomolar range

## 5′-pAGCAGAAGCAGAGGUAUA-3′ [c5']
[1]
  dissociation constant, polymerase + RNA (in words): low nanomolar range
[1]; fluorescently labelled RNA, binding buffer pH 7.4, read-out: KD, polymerase + promoter RNA
  Kd: < 0.01 µM
[4]
  Kd: 0.03 nM
[4]; listed as c5΄
  Kd: ~0.03 nM
[5]
  Kd: 0.0016 ± 0.0003 µM
[5]; listed as c5΄
  Kd: ~0.0016 µM

## Nc1ncnc2c1ncn2[C@@H]1O[C@H](COP(=O)(O)OP(=O)(O)OP(=O)(O)O)[C@@H](O)[C@H]1F [2'F-2'dATP]
[2]; [9]
  IC50: 0.7 mM
[2]; [10]
  IC50: 0.38 mM
[6]; [11]
  IC50: 0.03 mM
[7]; [12]
  IC50: 0.03 mM
[7]; [13]
  IC50: 0.3 mM

## Nc1ccn([C@@H]2O[C@H](COP(=O)(O)OP(=O)(O)OP(=O)(O)O)[C@@H](O)[C@H]2F)c(=O)n1 [2'F-2'dCTP]
[2]; IC50 (mM), cPol
  IC50: 1.5 mM and 2.1 mM
[6]
  IC50: 0.1 mM
[7]
  IC50: 0.21 mM and 1.4 mM

## Nc1nc2c(ncn2[C@@H]2O[C@H](COP(=O)(O)OP(=O)(O)OP(=O)(O)O)[C@@H](O)[C@H]2F)c(=O)[nH]1 [2'F-2'dGTP]
[2]; [9]
  IC50: 0.28 mM
[2]; [10]
  IC50: 0.43 mM
[6]; [11]
  IC50: 0.01 mM
[8]
  mode of inhibition of influenza polymerase with respect to GTP: reversibly and competitively
[7]; [12]
  IC50: 0.02 mM
[7]; [13]
  IC50: 0.2 mM

## O=c1ccn([C@@H]2O[C@H](COP(=O)(O)OP(=O)(O)OP(=O)(O)O)[C@@H](O)[C@H]2F)c(=O)[nH]1 [2'F-2'dUTP]
[2]; IC50 (mM), cPol
  IC50: 1.1 mM and 1.8 mM
[6]
  IC50: 0.3 mM
[7]
  IC50: 0.45 mM and 3.1 mM

Source: paper PMC5399792 (Nucleic Acids Research, 2017)
